# “Also recorded” adds a separate entry of the source. Counter-ions that a name gives are not always drawn. Like-named read-outs stand apart in the source and are kept apart here.
# Columns and labels:
# p21 = p21 fluorescent immunocytochemistry followed by high content cytometry in drug-treated SHSY-5Y cells; format: cell-based, Human; details: neuroblastoma cells
# Experimental: (§1) Human SHSY-5Y neuroblastoma cells were grown in DMEM:F12 supplemented with 10% FCS, penicillin (100 units/mil), streptomycin (100 μg/ml) and L-glutamine. The cells were plated for 24 hours into 96 well plates (5000 cells per well) before treatment with drugs. Each drug (doses applied in separate figures) and the control (DMSO) were applied to 8 technical replicate wells. After 24 hours treatment the cells were harvested by fixation in Glyofix and were post-fixed with ice cold 85% ethanol.
# (§2) For P21^cip staining, the alcohol was aspirated and replaced with 100 μl/well blocking solution (5% BSA in PBST [1:1000 Triton X]) and incubated for 30 minutes at room temperature. After aspirating the blocking solution, 50 μl/well primary antibody solution (monoclonal P21 Abcam, 1:1000 in PBST) was added and incubated over night at 4° C. and PBST was applied as negative control. The next day, the cells were washed by twice aspirating 200 μl/well PBST. Afterwards, 50 μl/well secondary antibody solution (Anti-mouse IgG-FITC, Abcam, 1:200 in PBST) was added, protecting the solutions and plates from light, and incubated overnight at +4° C. The next day, the cells were washed twice with 200 μl/well PBST and stained with propidium iodide solution. […]. The composition of the propidium iodide staining solution was 0.1% Triton-X-100, […] propidium iodide, […] RNase A in PBS. The cells were incubated with the staining solution for 25 minutes at 37° C., and then DNA content based on total fluorescence was measured with a High Content Cytometer (Acumen). This allows rapid analysis of whole 96 well plates with resolution equivalent to a 20× microscope objective. The measurement of p21 content of cells and nuclei was based on the direct measurement of fluorescent intensity.
# [1] = tested on: Human SHSY-5Y neuroblastoma cells; assay: High content cytometry apoptosis assay in drug-treated SHSY-5Y cells; format: cell-based; details: 24 hours; for cell death: up to 200 microM
# Experimental: as §1, §2
# p21cip1 = p21cip1 immunostaining and cytometry in drug-treated C7, KD2 and KD3 cells; format: cell-based, human
# Experimental: BSA was removed from the plates after 30 minutes incubation. To C7, KD2 and KD3 plates, 50 μl of primary antibody (p21; Abcam ab7903; 1/1000 in PBST) solution was added to each well. On ‘zero day control’ plate, 50 μl of the primary antibody was added to columns 1-6 while columns 7-12 received only 50 μl PBST on each well. These (columns 7-12) serve as a negative controls and will received secondary antibody only. Plates were then wrapped in cling film and were incubated at +4° C. overnight. The following day, p21 primary antibody solution was removed from the plates and cells were washed by adding 200 μl of PBST. This was repeated once (total of 2 washes) and all plates were then subjected to secondary antibody treatment. Secondary antibody solution was made using am IgG-FITC (Abcam ab6785; 1/200 in PBST) and 50 μl was added to each well. Plates were then wrapped in aluminium foil to protect from light and were incubated at +4° C. for 2 hours. The immunostaining was used to measure the content of p21^cip1 in the cells. Measurement was carried out using a laser triggering the 1° channel (bandpass filter 500-530 nm). The total fluorescence intensity from the 1° channel was used to compare total protein levels in the different cell populations defined above. Mean fluorescence intensity per cell (for the whole of the population) and mean fluorescence intensity per cell (for positive cells only) were analysed separately. Additionally the proportion of positive cells in each population was calculated.
# [2] = tested on: C7, KD2 and KD3 cell lines (SK-N-AS derived); assay: Apoptotic fraction in p21 positive versus p21 negative cells of drug-treated C7, KD2 and KD3 cultures; format: cell-based, human
# Experimental: (§3) The data exported and quantified included separately all cells and single cells. Single cells were further subcategorised into euploid, apoptotic and polyploid cells. Euploid cells were additionally classified into cells in G1 S and G2M phases of the cell cycle.
# The total fluorescence intensity from the 1° channel was used to compare total protein levels in the different cell populations defined above. Mean fluorescence intensity per cell (for the whole of the population) and mean fluorescence intensity per cell (for positive cells only) were analysed separately. Additionally the proportion of positive cells in each population was calculated.
# [3] = tested on: C7, KD2 and KD3 cell lines (SK-N-AS derived); assay: Cell cycle analysis (propidium iodide DNA content cytometry) in drug-treated C7, KD2 and KD3 cells; format: cell-based, human; details: 24 hours, up to 100 μM
# Experimental: The C7 cell suspension were poured into sterile reagent reservoir labelled C7 and using multichannel pipette, 50 μl of cell suspension were dispense into each well. Then 50 μl of 2× culture media was added into each well. Plating was repeated for KD2 and KD3 cell lines. One plate of ‘zero day control’ was also prepared per experiment. On ‘zero day control’ plate, C7 cell line were plated into columns 1, 2, 7 and 8; KD2 cell line were plated into columns 3, 4, 9 and 10; KD3 cell line were plated into columns 5, 6, 11 and 12. Cells were plated at the same density for both ‘zero day control’ and experiment plates. The ‘zero day control’ plate remains untreated and is to be harvested just before the drugs were added into the treatment plates.
# For each drug, 2× working solutions are prepared in culture medium and added to the cultures. The highest drug concentration is 100 μM and final solvent (H2O/DMSO) concentration in the cultures is 1%.
# Using an 8-multichannel pipetor, 100 μl of 2× final drug concentrations were gently dispensed into the culture plates of C7, KD2 and KD3 cells. The time of the treatment was noted and cells were transferred back into 37° C./5% CO2 humidified incubator and were incubated for 24 hours.
# The propidium iodide staining was used to determine the cell cycle phase of the cells based on DNA content.
# To determine cut-offs for cells in different phases of the cell cycle, gate setting was performed based on the G1 and G2 peaks on the DNA content histogram. To determine the G1 and G2 peaks, the 3° total intensity in 20% histograms was analysed for each plate. Gates calculated were manually entered into the Acumen software.
# as §3
# [4] = all three cell lines (C7, KD2, KD3)
# [5] = G1 and G2 subpopulations, all three cell lines
# [6] = all cell lines (C7, KD2, KD3), 24 hours
smiles,measurement,setting,value
CC(C(=O)O)c1ccc(-c2ccccc2)c(F)c1 (racemic) [Flurbiprofen],p21 expression,"p21; 0.01 and 0.1 microM, 24 hours",significantly increase
same,p21 expression in the nuclear compartment,"p21; 0.01 and 0.1 microM, 24 hours",significantly increase
same,expression and/or the functional activity of p21,p21,increased
same,apoptotic cell death,[1]; 0.01 and 0.1 microM,reduce apoptosis; also recorded: significantly reduce; also recorded: reduce apoptotic cell death
"O=C([O-])CCCc1ccccc1.[Na+] [4-PBA, Sodium 4-phenylbutyrate]",p21 expression,"p21cip1; G2 cell population, all three cell lines",induces; also recorded: relatively small
same,p21 expression,"p21cip1; G2 cell population, all three cell lines, listed as Sodium 4-phenylbutyrate",induces
same,apoptosis in p21 positive cells relative to p21 negative cells,[2],significantly reduced apoptosis
same,cell cycle effects,[3]; [4],no effects
"Cc1cc(C2CCCCC2)n(O)c(=O)c1 [CPX, Ciclopirox Olamine]",p21 expression,p21cip1; [5],induces significant p21 expression
same,p21 expression,p21cip1; [6],up-regulates
same,apoptosis in p21 positive cells relative to p21 negative cells,[2],significant reduction of apoptotic cells; also recorded: reduced cell death
same,cell cycle effects,[3]; [4],slight G1 cell cycle arrest
CCN(CC)CCCC(C)Nc1ccnc2cc(Cl)ccc12 (stereo not shown) [Chloroquine diphosphate],proportion of protein positive cells,p21cip1; C7 cells,increased proportion
same,p21 expression,"p21cip1; C7 cells, G1 and G2M",significantly increased
same,proportion of protein positive cells,p21cip1; KD2 and KD3 cells,increased
same,p21 expression,"p21cip1; KD2 cells, G2M phase",up-regulated
same,p21 expression,"p21cip1; KD3 cell line, G1",upregulation
same,population of positive cells,p21cip1; all cell lines,increases
same,p21 expression,p21cip1; [6],up-regulates
same,apoptosis in p21 positive cells relative to p21 negative cells,[2],significantly less likely to be apoptotic; also recorded: significantly reduced cell death
same,cell cycle effects,[3]; [4],no significant effect
same,cell cycle effects,"[3]; all three cell lines (C7, KD2, KD3), listed as chloroquine diphosphate",no significant cell cycle regulatory effects
"Nc1ccc(S(=O)(=O)c2ccc(N)cc2)cc1 [Dapsone, 4-Aminophenyl sulfone]",p21 expression,p21cip1; [6],significantly up-regulates
same,apoptosis in p21 positive cells relative to p21 negative cells,[2],significant reduction of apoptotic cells
same,cell cycle effects,[3]; [4],No cell cycle effects
C[C@@H](CN1CC(=O)NC(=O)C1)N1CC(=O)NC(=O)C1 [Dexrazoxane],expression and/or the functional activity of p21,p21,increased
same,p21 expression,"p21; up to 200 microM, 24 hours",significantly increase
same,cell death,[1],reduce neuronal cells death; also recorded: significantly reduced cell death
same,cell death,[1]; listed as Dexrasoxane,reduce apoptosis; also recorded: significantly reduced cell death
CC(=O)O[C@H]1C[C@@]2(C)[C@@H](C[C@@H](O)[C@H]3[C@@]4(C)CC[C@@H](O)[C@@H](C)[C@@H]4CC[C@@]32C)/C1=C(\CCC=C(C)C)C(=O)O [Fusidic acid],p21 expression,p21cip1; [6],significant increase; also recorded: induces significant p21 expression
same,apoptosis in p21 positive cells relative to p21 negative cells,[2],reduction of apoptosis
same,cell cycle effects,[3]; [4],weak G2 inhibitor
"CN(C)C(=O)C(CCN1CCC(O)(c2ccc(Cl)cc2)CC1)(c1ccccc1)c1ccccc1 [Loperamide, Loperamide hydrochloride]",p21 expression,p21cip1; [5],induce
same,p21 expression,p21cip1; [6],up-regulates
same,apoptosis in p21 positive cells relative to p21 negative cells,[2]; hydrochloride,significant reduction of apoptosis; also recorded: reduces apoptosis significantly
same,apoptosis in p21 positive cells relative to p21 negative cells,"[2]; listed as Loperamide hydrochloride, hydrochloride",significant reduction of apoptosis
same,cell cycle effects,"[3]; all three cell lines (C7, KD2, KD3), hydrochloride",weak G1 inhibitor; also recorded: weak G1 cell cycle arrest
"CCCC(CCC)C(=O)[O-].[Na+] [SV, Sodium Valproate]",p21 protein expression,"p21cip1; G2 sub-population of cells, 1 μM, 24 hours",significant upregulation
same,p21 expression,p21cip1; [6],modest
same,apoptosis in p21 positive cells relative to p21 negative cells,[2],significant reduction of apoptotic fraction
same,cell cycle effects,[3]; C7 cell line,slight G2 arrest; also recorded: not seen
same,cell cycle effects,[3]; KD2 cell line,G1 inhibition; also recorded: slight G1 inhibitor effect
same,cell cycle effects,[3]; KD3 cell line,G1 inhibition; also recorded: slight G1 inhibitor effect
